Results published in patent US10787452B2 (Vertex Pharmaceuticals Incorporated, priority 2012, dated 2020).

test system: HCT116 colorectal cancer cells; experiment: Cisplatin sensitization assay (96 h cell viability MTS); assay type: cell-based; conditions: 96 h MTS, compound plus Cisplatin;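 also: compound concentration needed to lower the Cisplatin-alone IC50 by a set fold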
Method in brief: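 Viability is measured with MTS reagent, added after 96 h and developed for 1 h at 37° C. Beforehand, cells receive compound and cisplatin simultaneously in a concentration matrix of 2-fold serial dilutions starting at 10 μM final.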

SMILES	Cisplatin Sensitization Assay
CN1CCN(CC2CCN(c3c(F)cncc3NC(=O)c3c(N)nn4cc(F)cnc34)CC2)C(=O)C1 [I-N-193, 2-amino-6-fluoro-N-(5-fluoro-4-(4-((4-methyl-2-oxopiperazin-1-yl)methyl)piperidin-1-yl)pyridin-3-yl)pyrazolo[1,5-a]pyrimidine-3-carboxamide]	+++ (Compounds with a Cisplatin sensitization value of <0.02 μM are marked with “+++.”)
CN1CC(C(=O)N2CCN(c3c(F)cncc3NC(=O)c3c(N)nn4cc(F)cnc34)CC2)C1 [I-N-194]	+++ (Compounds with a Cisplatin sensitization value of <0.02 μM are marked with “+++.”)
Nc1nn2cc(F)cnc2c1C(=O)Nc1cnccc1N1CCN(S(=O)(=O)C2COC2)CC1 [I-N-195, 2-amino-6-fluoro-N-(4-(4-(oxetan-3-ylsulfonyl)piperazin-1-yl)pyridin-3-yl)pyrazolo[1,5-a]pyrimidine-3-carboxamide]	+++ (Compounds with a Cisplatin sensitization value of <0.02 μM are marked with “+++.”)
Nc1nn2cc(F)cnc2c1C(=O)Nc1cnccc1N1CCC(S(=O)(=O)N2CCN3CCC2CC3)CC1 [I-N-196, N-(4-(4-(1,4-diazabicyclo[3.2.2]nonan-4-ylsulfonyl)piperidin-1-yl)pyridin-3-yl)-2-amino-6-fluoropyrazolo[1,5-a]pyrimidine-3-carboxamide]	+++ (Compounds with a Cisplatin sensitization value of <0.02 μM are marked with “+++.”)
Nc1nn2cc(F)cnc2c1C(=O)Nc1cnccc1N1CCC(CN2CCC(F)(F)C2)CC1 [I-N-197, 2-amino-N-(4-(4-((3,3-difluoropyrrolidin-1-yl)methyl)piperidin-1-yl)pyridin-3-yl)-6-fluoropyrazolo[1,5-a]pyrimidine-3-carboxamide]	+++ (Compounds with a Cisplatin sensitization value of <0.02 μM are marked with “+++.”)
CN1CCC[C@H]1C(=O)N1CCN(c2ccncc2NC(=O)c2c(N)nn3cc(F)cnc23)CC1 [I-N-198, (S)-2-amino-6-fluoro-N-(4-(4-(1-methylpyrrolidine-2-carbonyl)piperazin-1-yl)pyridin-3-yl)pyrazolo[1,5-a]pyrimidine-3-carboxamide]	++ (Compounds with a Cisplatin sensitization value >0.02 μM but <0.2 μM are marked with “++.”)
CN1CCC[C@@H]1C(=O)N1CCN(c2ccncc2NC(=O)c2c(N)nn3cc(F)cnc23)CC1 [I-N-199, (R)-2-amino-6-fluoro-N-(4-(4-(1-methylpyrrolidine-2-carbonyl)piperazin-1-yl)pyridin-3-yl)pyrazolo[1,5-a]pyrimidine-3-carboxamide]	+++ (Compounds with a Cisplatin sensitization value of <0.02 μM are marked with “+++.”)
Nc1nn2cc(F)cnc2c1C(=O)Nc1cnccc1N1CCC(S(=O)(=O)C2COC2)CC1 [I-N-200, 2-amino-6-fluoro-N-(4-(4-(oxetan-3-ylsulfonyl)piperidin-1-yl)pyridin-3-yl)pyrazolo[1,5-a]pyrimidine-3-carboxamide]	+++ (Compounds with a Cisplatin sensitization value of <0.02 μM are marked with “+++.”)
Nc1nn2cc(F)cnc2c1C(=O)Nc1cncc(F)c1N1CCN(S(=O)(=O)C2COC2)CC1 [I-N-201]	+++ (Compounds with a Cisplatin sensitization value of <0.02 μM are marked with “+++.”)
Nc1nn2cc(F)cnc2c1C(=O)Nc1cnccc1-n1ccnc1C1CC1 [I-N-202, 2-amino-N-(4-(2-cyclopropyl-1H-imidazol-1-yl)pyridin-3-yl)-6-fluoropyrazolo[1,5-a]pyrimidine-3-carboxamide]	+++ (Compounds with a Cisplatin sensitization value of <0.02 μM are marked with “+++.”)
Nc1nn2cc(F)cnc2c1C(=O)Nc1cncc(F)c1N1CCN(C(=O)C2CC3CCCCN3C2)CC1 (centres unmarked) [I-N-203, 2-amino-6-fluoro-N-(5-fluoro-4-(4-(octahydroindolizine-2-carbonyl)piperazin-1-yl)pyridin-3-yl)pyrazolo[1,5-a]pyrimidine-3-carboxamide]	+++ (Compounds with a Cisplatin sensitization value of <0.02 μM are marked with “+++.”)
CC(C)N1CCCC1C(=O)N1CCN(c2c(F)cncc2NC(=O)c2c(N)nn3cc(F)cnc23)CC1 (centres unmarked) [I-N-205, 2-amino-6-fluoro-N-(5-fluoro-4-(4-(1-isopropylpyrrolidine-2-carbonyl)piperazin-1-yl)pyridin-3-yl)pyrazolo[1,5-a]pyrimidine-3-carboxamide]	++ (Compounds with a Cisplatin sensitization value >0.02 μM but <0.2 μM are marked with “++.”)
CC(C)N1CCC(C(=O)N2CCN(c3c(F)cncc3NC(=O)c3c(N)nn4cc(F)cnc34)CC2)C1 (centres unmarked) [I-N-206, 2-amino-6-fluoro-N-(5-fluoro-4-(4-(1-isopropylpyrrolidine-3-carbonyl)piperazin-1-yl)pyridin-3-yl)pyrazolo[1,5-a]pyrimidine-3-carboxamide]	+++ (Compounds with a Cisplatin sensitization value of <0.02 μM are marked with “+++.”)
COCCS(=O)(=O)C1CCN(c2ccncc2NC(=O)c2c(N)nn3cc(F)cnc23)CC1 [I-N-208, 2-amino-6-fluoro-N-(4-(4-((2-methoxyethyl)sulfonyl)piperidin-1-yl)pyridin-3-yl)pyrazolo[1,5-a]pyrimidine-3-carboxamide]	+++ (Compounds with a Cisplatin sensitization value of <0.02 μM are marked with “+++.”)
CN1CCN(c2ccncc2NC(=O)c2c(N)nn3cc(F)cnc23)CC1=O [I-N-209, 2-amino-6-fluoro-N-(4-(4-methyl-3-oxopiperazin-1-yl)pyridin-3-yl)pyrazolo[1,5-a]pyrimidine-3-carboxamide]	+++ (Compounds with a Cisplatin sensitization value of <0.02 μM are marked with “+++.”)
Nc1nn2cc(F)cnc2c1C(=O)Nc1cnccc1N1CCS(=O)(=O)CC1 [I-N-210, 2-amino-N-(4-(1,1-dioxidothiomorpholino)pyridin-3-yl)-6-fluoropyrazolo[1,5-a]pyrimidine-3-carboxamide]	+++ (Compounds with a Cisplatin sensitization value of <0.02 μM are marked with “+++.”)
Nc1nn2cc(F)cnc2c1C(=O)Nc1cncc(F)c1N1CCN(C(=O)C2CCN(C3COC3)CC2)CC1 [I-N-211, 2-amino-6-fluoro-N-(5-fluoro-4-(4-(1-(oxetan-3-yl)piperidine-4-carbonyl)piperazin-1-yl)pyridin-3-yl)pyrazolo[1,5-a]pyrimidine-3-carboxamide]	++ (Compounds with a Cisplatin sensitization value >0.02 μM but <0.2 μM are marked with “++.”)
CN1CCN(c2c(F)cncc2NC(=O)c2c(N)nn3cc(F)cnc23)CC1=O [I-N-212, 2-amino-6-fluoro-N-(5-fluoro-4-(4-methyl-3-oxopiperazin-1-yl)pyridin-3-yl)pyrazolo[1,5-a]pyrimidine-3-carboxamide]	+++ (Compounds with a Cisplatin sensitization value of <0.02 μM are marked with “+++.”)
Nc1nn2cc(F)cnc2c1C(=O)Nc1cncc(F)c1N1CCC(CN2CCCC2=O)CC1 [I-N-213, 2-amino-6-fluoro-N-(5-fluoro-4-(4-((2-oxopyrrolidin-1-yl)methyl)piperidin-1-yl)pyridin-3-yl)pyrazolo[1,5-a]pyrimidine-3-carboxamide]	+++ (Compounds with a Cisplatin sensitization value of <0.02 μM are marked with “+++.”)
CN1CCCCC1C(=O)N1CCN(c2c(F)cncc2NC(=O)c2c(N)nn3cc(F)cnc23)CC1 (centres unmarked) [I-N-214, 2-amino-6-fluoro-N-(5-fluoro-4-(4-(1-methylpiperidine-2-carbonyl)piperazin-1-yl)pyridin-3-yl)pyrazolo[1,5-a]pyrimidine-3-carboxamide]	++ (Compounds with a Cisplatin sensitization value >0.02 μM but <0.2 μM are marked with “++.”)
CS(=O)(=O)CC1CCN(c2ccncc2NC(=O)c2c(N)nn3cc(F)cnc23)CC1 [I-N-215, 2-amino-6-fluoro-N-(4-(4-((methylsulfonyl)methyl)piperidin-1-yl)pyridin-3-yl)pyrazolo[1,5-a]pyrimidine-3-carboxamide]	+++ (Compounds with a Cisplatin sensitization value of <0.02 μM are marked with “+++.”)
CN1CC2(CCN(c3ccncc3NC(=O)c3c(N)nn4cc(F)cnc34)CC2)OC1=O [I-N-216, 2-amino-6-fluoro-N-(4-(3-methyl-2-oxo-1-oxa-3,8-diazaspiro[4.5]decan-8-yl)pyridin-3-yl)pyrazolo[1,5-a]pyrimidine-3-carboxamide]	+++ (Compounds with a Cisplatin sensitization value of <0.02 μM are marked with “+++.”)
Nc1nn2cc(F)cnc2c1C(=O)Nc1cnccc1N1CCN2C(=O)CC[C@H]2C1 [I-N-217, (S)-2-amino-6-fluoro-N-(4-(6-oxohexahydropyrrolo[1,2-a]pyrazin-2(1H)-yl)pyridin-3-yl)pyrazolo[1,5-a]pyrimidine-3-carboxamide]	++ (Compounds with a Cisplatin sensitization value >0.02 μM but <0.2 μM are marked with “++.”)
Cc1nc(C)n(-c2ccncc2NC(=O)c2c(N)nn3cc(F)cnc23)n1 [I-N-218, 2-amino-N-(4-(3,5-dimethyl-1H-1,2,4-triazol-1-yl)pyridin-3-yl)-6-fluoropyrazolo[1,5-a]pyrimidine-3-carboxamide]	+ (Compounds with a Cisplatin sensitization value >0.2 μM but <5 μM are marked with “+.”)
Nc1nn2cc(F)cnc2c1C(=O)Nc1cnccc1-n1ccnc1C(F)(F)F [I-N-219, 2-amino-6-fluoro-N-(4-(2-(trifluoromethyl)-1H-imidazol-1-yl)pyridin-3-yl)pyrazolo[1,5-a]pyrimidine-3-carboxamide]	+++ (Compounds with a Cisplatin sensitization value of <0.02 μM are marked with “+++.”)
CC1(C)CCCN1c1ccncc1NC(=O)c1c(N)nn2cc(F)cnc12 [I-N-220, 2-amino-N-(4-(2,2-dimethylpyrrolidin-1-yl)pyridin-3-yl)-6-fluoropyrazolo[1,5-a]pyrimidine-3-carboxamide]	++ (Compounds with a Cisplatin sensitization value >0.02 μM but <0.2 μM are marked with “++.”)
